The values that follow come from ChEMBL document CHEMBL3727356, “Therapeutic compounds and compositions” (2014).

A value given as a limit tells only on which side of the number the result lay.

Assay [1] addresses Pyruvate kinase PKLR (Homo sapiens, UniProt P30613, R532W). Nature of the assay: Activation of PKR R532W mutant (unknown origin) incubated for 60 mins in presence of ADP, PEP and NADH by Spectraax microplate reader based assay.
The target of assay [2] is Pyruvate kinase PKLR (Homo sapiens, UniProt P30613). The assay is described as follows: Activation of wild type PKR (unknown origin) incubated for 60 mins in presence of ADP, PEP and NADH by Spectraax microplate reader based assay.
Sequence of Pyruvate kinase PKLR (Homo sapiens, UniProt P30613) (P30613 whole entry): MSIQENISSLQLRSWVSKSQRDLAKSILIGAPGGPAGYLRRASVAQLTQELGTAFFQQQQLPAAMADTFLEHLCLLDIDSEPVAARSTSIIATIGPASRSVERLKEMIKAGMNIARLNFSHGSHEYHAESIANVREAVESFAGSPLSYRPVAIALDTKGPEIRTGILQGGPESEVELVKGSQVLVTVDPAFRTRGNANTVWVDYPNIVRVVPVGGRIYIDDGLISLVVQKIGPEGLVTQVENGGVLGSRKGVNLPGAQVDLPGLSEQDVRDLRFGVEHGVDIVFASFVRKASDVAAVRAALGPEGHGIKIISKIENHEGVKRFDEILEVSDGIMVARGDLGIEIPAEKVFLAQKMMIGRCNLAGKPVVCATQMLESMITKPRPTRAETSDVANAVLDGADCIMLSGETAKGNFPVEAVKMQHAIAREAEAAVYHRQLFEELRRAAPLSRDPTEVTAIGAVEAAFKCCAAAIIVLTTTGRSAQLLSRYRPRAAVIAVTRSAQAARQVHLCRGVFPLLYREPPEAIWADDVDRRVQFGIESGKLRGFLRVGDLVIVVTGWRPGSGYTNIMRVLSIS

Sequence of Pyruvate kinase PKLR (Homo sapiens, UniProt P30613, R532W) (P30613 whole entry R532W): as the sequence (P30613 whole entry) above, with R532W counted along it

What is called AC50 is the concentration at which the activity in the assay is half-maximal. Regarding `O=C(c1ccc(NS(=O)(=O)c2cccc3cccnc23)cc1)N1CCC(O)(Cc2cccnc2)CC1`, the AC50 at Pyruvate kinase PKLR [1] and at Pyruvate kinase PKLR [2] was less than 100 nM each time. With `COCCC1(O)CCN(C(=O)c2ccc(NS(=O)(=O)c3cccc4cccnc34)cc2)CC1`, at Pyruvate kinase PKLR [2], the AC50 is less than 100 nM.

Take `Cc1ccc(C2(O)CCN(C(=O)c3ccc(NS(=O)(=O)c4cccc5cccnc45)cc3)CC2)c(Cl)c1`: the AC50 on Pyruvate kinase PKLR [1] and at Pyruvate kinase PKLR [2] was less than 100 nM in each case. For the compound `O=C(c1ccc(NS(=O)(=O)c2cccc3scnc23)cc1)N1CCC(O)(CCC(F)=C(F)F)CC1`, the AC50 at Pyruvate kinase PKLR [1] and at Pyruvate kinase PKLR [2] was less than 100 nM each time. `O=C(c1ccc(NS(=O)(=O)c2cccc3scnc23)cc1)N1CCC(O)(CC2CC2(F)F)CC1` (centres undefined): the AC50 on Pyruvate kinase PKLR [1] and on Pyruvate kinase PKLR [2] was less than 100 nM each time. On to `O=C(c1ccc(NS(=O)(=O)c2cccc3cccnc23)cc1)N1CCC(O)(Cc2cccc(C(F)(F)F)c2)CC1`, for which the AC50 at Pyruvate kinase PKLR [1] and on Pyruvate kinase PKLR [2] was less than 100 nM throughout. On to `CC(F)(F)CCC1(O)CCN(C(=O)c2ccc(NS(=O)(=O)c3cccc4scnc34)cc2)CC1`, for which the AC50 at Pyruvate kinase PKLR [1] and on Pyruvate kinase PKLR [2] was less than 100 nM throughout. Consider `O=C(c1ccc(NS(=O)(=O)c2cccc3scnc23)cc1)N1CCC(O)(c2ccccc2C(F)F)CC1`, for which the concentration at half-maximal activity (AC50) at Pyruvate kinase PKLR [1] and on Pyruvate kinase PKLR [2] was less than 100 nM throughout. For `O=C(c1ccc(NS(=O)(=O)c2cc(F)cc3cccnc23)cc1)N1CCC(O)(c2ccccc2Cl)CC1`, the AC50 at Pyruvate kinase PKLR [1] and at Pyruvate kinase PKLR [2] was less than 100 nM in each case. Consider `Cc1n[nH]c(C)c1CC1(O)CCN(C(=O)c2ccc(NS(=O)(=O)c3cccc4nccnc34)cc2)CC1`, for which the AC50 at Pyruvate kinase PKLR [1] and at Pyruvate kinase PKLR [2] was less than 100 nM throughout. Take `O=C(c1ccc(NS(=O)(=O)c2ccc(F)c3cccnc23)cc1)N1CCC(O)(CC2CCC2)CC1`: the concentration at half-maximal activity (AC50) on Pyruvate kinase PKLR [1] and at Pyruvate kinase PKLR [2] was less than 100 nM each time.

Turning to `O=C(c1ccc(NS(=O)(=O)c2cccc3scnc23)cc1)N1CCC(O)(Cc2cn[nH]c2)CC1`, the concentration at half-maximal activity (AC50) on Pyruvate kinase PKLR [1] and on Pyruvate kinase PKLR [2] was less than 100 nM throughout. As for `O=C(c1ccc(NS(=O)(=O)c2cccc3nccnc23)cc1)N1CCC(O)(CCC(F)(F)F)CC1`, the concentration at half-maximal activity (AC50) at Pyruvate kinase PKLR [1] and at Pyruvate kinase PKLR [2] was less than 100 nM throughout. In the case of `O=C(c1ccc(NS(=O)(=O)c2ccc(C(F)(F)F)cc2)cc1)N1CCC(O)(Cc2ccccc2)CC1`, the AC50 at Pyruvate kinase PKLR [1] and at Pyruvate kinase PKLR [2] was more than 10000 nM in each case.

Take `O=C(c1ccc(NS(=O)(=O)c2cccc3cccnc23)c2ccccc12)N1CCC(O)(c2ccccc2Cl)CC1`: the AC50 on Pyruvate kinase PKLR [1] and at Pyruvate kinase PKLR [2] was less than 100 nM each time. As for `CC(C)CC1(O)CCN(C(=O)c2ccc(NS(=O)(=O)c3cccc4snnc34)cc2)CC1`, the half-maximal activity concentration (AC50) at Pyruvate kinase PKLR [1] and on Pyruvate kinase PKLR [2] was more than 10000 nM in each case.

Take `Cc1cc(C2(O)CCN(C(=O)c3ccc(NS(=O)(=O)c4cccc5scnc45)cc3)CC2)sn1`: the AC50 at Pyruvate kinase PKLR [1] and on Pyruvate kinase PKLR [2] was less than 100 nM each time. In the case of `Cc1cc(C2(O)CCN(C(=O)c3ccc(NS(=O)(=O)c4cccc5nccnc45)cc3)CC2)sn1`, the AC50 at Pyruvate kinase PKLR [1] and on Pyruvate kinase PKLR [2] was less than 100 nM in each case. For the compound `O=C(c1ccc(NS(=O)(=O)c2cccc3ocnc23)cc1)N1CCC(O)(c2ccccc2Cl)CC1`, the AC50 at Pyruvate kinase PKLR [2] was less than 100 nM. Take `Cn1cc(CC2(O)CCN(C(=O)c3ccc(NS(=O)(=O)c4cccc5scnc45)cc3)CC2)cn1`: the AC50 at Pyruvate kinase PKLR [1] was less than 100 nM. In the case of `O=C(c1ccc(NS(=O)(=O)c2cccc3ccoc23)cc1)N1CCC(O)(c2ccccc2Cl)CC1`, the concentration at half-maximal activity (AC50) at Pyruvate kinase PKLR [1] and at Pyruvate kinase PKLR [2] was less than 100 nM each time. In the case of `COc1cc(NS(=O)(=O)c2cccc3cccnc23)ccc1C(=O)N1CCC(O)(c2ccccc2Cl)CC1`, the AC50 at Pyruvate kinase PKLR [1] and on Pyruvate kinase PKLR [2] was less than 100 nM in each case. Regarding `CCOCC1(O)CCN(C(=O)c2ccc(NS(=O)(=O)c3cccc4cccnc34)cc2)CC1`, the AC50 on Pyruvate kinase PKLR [1] was less than 100 nM.

`O=C(c1ncc(NS(=O)(=O)c2cccc3cccnc23)cn1)N1CCC(O)(c2ccccc2)CC1`: on Pyruvate kinase PKLR [2], the AC50 was more than 10000 nM. With `Cc1nc(C2(O)CCN(C(=O)c3ccc(NS(=O)(=O)c4cccc5cccnc45)cc3)CC2)ccc1F`, the AC50 at Pyruvate kinase PKLR [1] and on Pyruvate kinase PKLR [2] was less than 100 nM in each case. In the case of `O=C(c1ccc(NS(=O)(=O)c2cccc3cccnc23)cc1)N1CCC(O)(/C=C/C(F)F)CC1`, on Pyruvate kinase PKLR [2], the AC50 is less than 100 nM.

With `O=C(c1ccc(NS(=O)(=O)c2cccc3ccccc23)cc1)N1CCC(O)(c2ccccc2Cl)CC1`, the AC50 on Pyruvate kinase PKLR [1] and on Pyruvate kinase PKLR [2] was less than 100 nM in each case. For the compound `O=C(c1ccc(NS(=O)(=O)c2cccc3cccnc23)cc1)N1CCC(O)(Cc2ccccn2)CC1`, the AC50 at Pyruvate kinase PKLR [1] and on Pyruvate kinase PKLR [2] was less than 100 nM in each case. For `CC(C)CC1(O)CCN(C(=O)c2ccc(NS(=O)(=O)c3cc(F)cc4scnc34)cc2)CC1`, the AC50 at Pyruvate kinase PKLR [1] and at Pyruvate kinase PKLR [2] was less than 100 nM in each case.

With `O=C(c1ccc(NS(=O)(=O)c2cccc3scnc23)cc1)N1CCC(O)(Cc2nc(Cl)cs2)CC1`, the AC50 on Pyruvate kinase PKLR [2] is less than 100 nM. Turning to `O=C(c1ccc(NS(=O)(=O)c2cccc3ccc(F)nc23)cc1)N1CCC(O)(c2ccccc2Cl)CC1`, the AC50 on Pyruvate kinase PKLR [1] and on Pyruvate kinase PKLR [2] was less than 100 nM each time. With `O=C(c1ccc(NS(=O)(=O)c2cccc3nccnc23)cc1)N1CCC(O)(CC2CC2)CC1`, the AC50 at Pyruvate kinase PKLR [1] and on Pyruvate kinase PKLR [2] was less than 100 nM in each case. `Cc1cccc(CC2(O)CCN(C(=O)c3ccc(NS(=O)(=O)c4cccc5cccnc45)cc3)CC2)n1`: the AC50 at Pyruvate kinase PKLR [1] and on Pyruvate kinase PKLR [2] was less than 100 nM throughout. Turning to `Cc1nc(C(=O)N2CCC(O)(c3ccccc3Cl)CC2)ccc1NS(=O)(=O)c1cccc2cccnc12`, the AC50 on Pyruvate kinase PKLR [1] and on Pyruvate kinase PKLR [2] was less than 100 nM in each case.

With `Cc1cc(CC2(O)CCN(C(=O)c3ccc(NS(=O)(=O)c4cccc5nccnc45)cc3)CC2)sn1`, the AC50 on Pyruvate kinase PKLR [1] and at Pyruvate kinase PKLR [2] was less than 100 nM in each case. In the case of `O=C(c1ccc(NS(=O)(=O)c2cc(F)cc3scnc23)cc1)N1CCC(O)(c2ccccc2Cl)CC1`, the half-maximal activity concentration (AC50) at Pyruvate kinase PKLR [1] and on Pyruvate kinase PKLR [2] was less than 100 nM each time. On to `O=C(c1ccc(NS(=O)(=O)c2ccc(F)c3cccnc23)cc1)N1CCC(O)(Cc2ccccc2C(F)(F)F)CC1`, for which the AC50 at Pyruvate kinase PKLR [1] and on Pyruvate kinase PKLR [2] was less than 100 nM throughout. With `CC(C)CC1(CO)CCN(C(=O)c2ccc(NS(=O)(=O)c3cccc4scnc34)cc2)CC1`, the half-maximal activity concentration (AC50) at Pyruvate kinase PKLR [1] and at Pyruvate kinase PKLR [2] was less than 100 nM throughout. `CC(F)(F)CCC1(O)CCN(C(=O)c2ccc(NS(=O)(=O)c3cccc4scnc34)cc2OC(F)F)CC1`: the AC50 at Pyruvate kinase PKLR [1] and at Pyruvate kinase PKLR [2] was less than 100 nM in each case. On to `Cn1nccc1CC1(O)CCN(C(=O)c2ccc(NS(=O)(=O)c3cccc4scnc34)cc2)CC1`, for which, on Pyruvate kinase PKLR [1], the AC50 is less than 100 nM. Regarding `O=C(c1ccc(NS(=O)(=O)c2cccc3nccnc23)cc1)N1CCC(O)(Cc2cn[nH]c2)CC1`, the concentration at half-maximal activity (AC50) at Pyruvate kinase PKLR [1] and at Pyruvate kinase PKLR [2] was less than 100 nM each time. Turning to `O=C(c1ccc(NS(=O)(=O)c2cccc3cccnc23)cc1)N1CCC(O)(c2cccnc2F)CC1`, the concentration at half-maximal activity (AC50) on Pyruvate kinase PKLR [2] is less than 100 nM. Consider `O=C(c1ccc(NS(=O)(=O)c2cccnc2)cc1)N1CCC(O)(Cc2ccccc2)CC1`, for which the AC50 on Pyruvate kinase PKLR [1] is more than 10000 nM. On to `N#Cc1cccc(S(=O)(=O)Nc2ccc(C(=O)N3CCC(O)(Cc4ccccc4)CC3)cc2)c1`, for which the AC50 on Pyruvate kinase PKLR [2] is more than 10000 nM. The same measure, in the same setting: with `CC(F)(F)CCC1(O)CCN(C(=O)c2ccc(NS(=O)(=O)c3cc(F)cc4sc(N)nc34)cc2F)CC1` the figure was less than 100 nM.

As for `CC(F)(F)CCC1(O)CCN(C(=O)c2ccc(NS(=O)(=O)c3cccc4nccnc34)cc2OC(F)F)CC1`, at Pyruvate kinase PKLR [1], the half-maximal activity concentration (AC50) is less than 100 nM.
